The supplement of paper PMC12592484

System: CAF#5 (primary prostate cancer-associated fibroblasts of myCAF-like type)
Experiment: drug sensitivity score (DSS2, normalised partial AUC of dose-response, 72 h CellTiter-Glo viability) (DSS (dimensionless)); higher = more sensitive (stronger growth inhibition / cytotoxicity); extreme values may be limits of the assay
In short: (§1)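 Low-passage primary prostate cancer-associated fibroblasts, PF179T, WPMY-1, LNCaP and 22Rv1 cells were seeded into 384-well plates carrying pre-dispensed compounds at five doses covering a 10,000-fold range. After 72 h, viability was read by CellTiter-Glo 2.0 luminescence. Responses were scaled to vehicle and positive-control wells. The drug sensitivity score (DSS2) is a partial area under the fitted logistic dose–response curve divided by the log of its upper asymptote, computed in BREEZE; higher means more sensitive.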

| SMILES | drug sensitivity score |
| --- | --- |
| COc1cc(NS(C)(=O)=O)ccc1Nc1c2ccccc2nc2ccccc12 [Amsacrine] (tested concentration range 1-10000 nM) | 2.2 |
| O=C1CN2Cc3c(ccc(Cl)c3Cl)N=C2N1 [Anagrelide] (tested concentration range 1-10000 nM) | 0.6 |
| CC(C)(C#N)c1cc(Cn2cncn2)cc(C(C)(C)C#N)c1 [Anastrozole] (tested concentration range 1-10000 nM) | 0 |
| CNC(=O)c1ccc(N2C(=S)N(c3cnc(C#N)c(C(F)(F)F)c3)C(=O)C23CCC3)cc1F [Apalutamide] (tested concentration range 1-10000 nM) | 0.1 |
| N#CC1(c2ccc(NC(=O)c3cccnc3NCc3ccncc3)cc2)CCCC1 [Apatinib] (tested concentration range 1-10000 nM) | 0 |
| O=C(Nc1ccc(OC(F)(F)Cl)cc1)c1cnc(N2CC[C@@H](O)C2)c(-c2cc[nH]n2)c1 [Asciminib] (tested concentration range 0.1-1000 nM) | 0 |
| CC(C)c1c(C(=O)Nc2ccccc2)c(-c2ccccc2)c(-c2ccc(F)cc2)n1CC[C@@H](O)C[C@@H](O)CC(=O)O [Atorvastatin] (tested concentration range 1-10000 nM) | 5.4 |
| CC(=O)OC[C@H]1O[C@@H]([S-])[C@H](OC(C)=O)[C@@H](OC(C)=O)[C@@H]1OC(C)=O.CCP(CC)CC.[Au+] [Auranofin] (tested concentration range 0.2-2500 nM) | 3.5 |
| Cc1nc2cccc(N)c2c(=O)n1C1CCC(=O)NC1=O (stereo unspecified) [Avadomide] (tested concentration range 1-10000 nM) | 0 |
| CNC(=O)c1ccccc1Sc1ccc2c(/C=C/c3ccccn3)n[nH]c2c1 [Axitinib] (tested concentration range 1-10000 nM) | 2 |
| Nc1ncn([C@@H]2O[C@H](CO)[C@@H](O)[C@H]2O)c(=O)n1 [Azacitidine] (tested concentration range 1-10000 nM) | 0.5 |
| Cc1cc(-c2nc(-c3ccc(OC(F)(F)F)cc3)no2)nn1Cc1ccnc(N2CCN(C3CC3)CC2)c1 [BAY 87-2243] (tested concentration range 0.1-1000 nM) | 0 |

System: CAF#6 (primary prostate cancer-associated fibroblasts of iCAF-like type)
Experiment: as above
In short: as §1

| SMILES | drug sensitivity score |
| --- | --- |
| CC#CC(=O)N1CCC[C@H]1c1nc(-c2ccc(C(=O)Nc3ccccn3)cc2)c2c(N)nccn12 [Acalabrutinib] (tested concentration range 0.1-1000 nM) | 0 |
| COc1cc(C)c(/C=C/C(C)=C/C=C/C(C)=C/C(=O)O)c(C)c1C [Acitretin] (tested concentration range 1-10000 nM) | 0.4 |
| C=CCn1c(=O)c2cnc(Nc3ccc(N4CCN(C)CC4)cc3)nc2n1-c1cccc(C(C)(C)O)n1 [Adavosertib] (tested concentration range 1-10000 nM) | 4 |
| CN(C)C/C=C/C(=O)Nc1cc2c(Nc3ccc(F)c(Cl)c3)ncnc2cc1O[C@H]1CCOC1 [Afatinib] (tested concentration range 0.1-1000 nM) | 0 |
| Cn1ncc(Cl)c1-c1cc(C(=O)N[C@H](CN)Cc2cccc(F)c2)sc1Cl [Afuresertib] (tested concentration range 0.1-1000 nM) | 0.6 |
| CCc1cc2c(cc1N1CCC(N3CCOCC3)CC1)C(C)(C)c1[nH]c3cc(C#N)ccc3c1C2=O [Alectinib] (tested concentration range 0.1-1000 nM) | 0 |
| COc1cc(Nc2ncc3c(n2)-c2ccc(Cl)cc2C(c2c(F)cccc2OC)=NC3)ccc1C(=O)O [Alisertib] (tested concentration range 1-10000 nM) | 1.2 |
| Oc1ncnc2[nH]ncc12 [Allopurinol] (tested concentration range 1-10000 nM) | 0 |
| Cc1nc(NC(=O)N2CCC[C@H]2C(N)=O)sc1-c1ccnc(C(C)(C)C(F)(F)F)c1 [Alpelisib] (tested concentration range 0.2-2500 nM) | 3 |
| CN1CC[C@H](c2c(O)cc(O)c3c(=O)cc(-c4ccccc4Cl)oc23)[C@H](O)C1 [Alvocidib] (tested concentration range 1-10000 nM) | 13.9 |
| CCN(CC)CCNC(=O)c1c(C)[nH]c(/C=C2\C(=O)Nc3ccc(-c4csc(-c5ccccc5)n4)cc32)c1C [Amcasertib] (tested concentration range 1-10000 nM) | 0 |
| CCC1(c2ccc(N)cc2)CCC(=O)NC1=O (stereo unspecified) [Aminoglutethimide] (tested concentration range 1-10000 nM) | 0 |
| COc1cc(NS(C)(=O)=O)ccc1Nc1c2ccccc2nc2ccccc12 [Amsacrine] (tested concentration range 1-10000 nM) | 3.8 |
| O=C1CN2Cc3c(ccc(Cl)c3Cl)N=C2N1 [Anagrelide] (tested concentration range 1-10000 nM) | 0 |
| CC(C)(C#N)c1cc(Cn2cncn2)cc(C(C)(C)C#N)c1 [Anastrozole] (tested concentration range 1-10000 nM) | 0 |
| CNC(=O)c1ccc(N2C(=S)N(c3cnc(C#N)c(C(F)(F)F)c3)C(=O)C23CCC3)cc1F [Apalutamide] (tested concentration range 1-10000 nM) | 0.2 |
| N#CC1(c2ccc(NC(=O)c3cccnc3NCc3ccncc3)cc2)CCCC1 [Apatinib] (tested concentration range 1-10000 nM) | 2.6 |
| O=C(Nc1ccc(OC(F)(F)Cl)cc1)c1cnc(N2CC[C@@H](O)C2)c(-c2cc[nH]n2)c1 [Asciminib] (tested concentration range 0.1-1000 nM) | 0 |
| CC(C)c1c(C(=O)Nc2ccccc2)c(-c2ccccc2)c(-c2ccc(F)cc2)n1CC[C@@H](O)C[C@@H](O)CC(=O)O [Atorvastatin] (tested concentration range 1-10000 nM) | 5.2 |
| CC(=O)OC[C@H]1O[C@@H]([S-])[C@H](OC(C)=O)[C@@H](OC(C)=O)[C@@H]1OC(C)=O.CCP(CC)CC.[Au+] [Auranofin] (tested concentration range 0.2-2500 nM) | 5.4 |
| Cc1nc2cccc(N)c2c(=O)n1C1CCC(=O)NC1=O (stereo unspecified) [Avadomide] (tested concentration range 1-10000 nM) | 0 |
| CNC(=O)c1ccccc1Sc1ccc2c(/C=C/c3ccccn3)n[nH]c2c1 [Axitinib] (tested concentration range 1-10000 nM) | 3.3 |
| Nc1ncn([C@@H]2O[C@H](CO)[C@@H](O)[C@H]2O)c(=O)n1 [Azacitidine] (tested concentration range 1-10000 nM) | 2.2 |
| Cc1cc(-c2nc(-c3ccc(OC(F)(F)F)cc3)no2)nn1Cc1ccnc(N2CCN(C3CC3)CC2)c1 [BAY 87-2243] (tested concentration range 0.1-1000 nM) | 0 |

System: CAF#7 (primary prostate cancer-associated fibroblasts of myCAF-like type)
Experiment: as above
In short: as §1

| SMILES | drug sensitivity score |
| --- | --- |
| CC#CC(=O)N1CCC[C@H]1c1nc(-c2ccc(C(=O)Nc3ccccn3)cc2)c2c(N)nccn12 [Acalabrutinib] (tested concentration range 0.1-1000 nM) | 0 |
| COc1cc(C)c(/C=C/C(C)=C/C=C/C(C)=C/C(=O)O)c(C)c1C [Acitretin] (tested concentration range 1-10000 nM) | 0 |
| C=CCn1c(=O)c2cnc(Nc3ccc(N4CCN(C)CC4)cc3)nc2n1-c1cccc(C(C)(C)O)n1 [Adavosertib] (tested concentration range 1-10000 nM) | 7.3 |
| CN(C)C/C=C/C(=O)Nc1cc2c(Nc3ccc(F)c(Cl)c3)ncnc2cc1O[C@H]1CCOC1 [Afatinib] (tested concentration range 0.1-1000 nM) | 0 |
| Cn1ncc(Cl)c1-c1cc(C(=O)N[C@H](CN)Cc2cccc(F)c2)sc1Cl [Afuresertib] (tested concentration range 0.1-1000 nM) | 0 |
| CCc1cc2c(cc1N1CCC(N3CCOCC3)CC1)C(C)(C)c1[nH]c3cc(C#N)ccc3c1C2=O [Alectinib] (tested concentration range 0.1-1000 nM) | 0 |
| COc1cc(Nc2ncc3c(n2)-c2ccc(Cl)cc2C(c2c(F)cccc2OC)=NC3)ccc1C(=O)O [Alisertib] (tested concentration range 1-10000 nM) | 3.5 |
| Oc1ncnc2[nH]ncc12 [Allopurinol] (tested concentration range 1-10000 nM) | 0 |
| Cc1nc(NC(=O)N2CCC[C@H]2C(N)=O)sc1-c1ccnc(C(C)(C)C(F)(F)F)c1 [Alpelisib] (tested concentration range 0.2-2500 nM) | 3.4 |
| CN1CC[C@H](c2c(O)cc(O)c3c(=O)cc(-c4ccccc4Cl)oc23)[C@H](O)C1 [Alvocidib] (tested concentration range 1-10000 nM) | 15.4 |
| CCN(CC)CCNC(=O)c1c(C)[nH]c(/C=C2\C(=O)Nc3ccc(-c4csc(-c5ccccc5)n4)cc32)c1C [Amcasertib] (tested concentration range 1-10000 nM) | 0 |
| CCC1(c2ccc(N)cc2)CCC(=O)NC1=O (stereo unspecified) [Aminoglutethimide] (tested concentration range 1-10000 nM) | 0 |
| COc1cc(NS(C)(=O)=O)ccc1Nc1c2ccccc2nc2ccccc12 [Amsacrine] (tested concentration range 1-10000 nM) | 7.1 |
| O=C1CN2Cc3c(ccc(Cl)c3Cl)N=C2N1 [Anagrelide] (tested concentration range 1-10000 nM) | 8.8 |
| CC(C)(C#N)c1cc(Cn2cncn2)cc(C(C)(C)C#N)c1 [Anastrozole] (tested concentration range 1-10000 nM) | 0 |
| CNC(=O)c1ccc(N2C(=S)N(c3cnc(C#N)c(C(F)(F)F)c3)C(=O)C23CCC3)cc1F [Apalutamide] (tested concentration range 1-10000 nM) | 0 |
| N#CC1(c2ccc(NC(=O)c3cccnc3NCc3ccncc3)cc2)CCCC1 [Apatinib] (tested concentration range 1-10000 nM) | 2.2 |
| O=C(Nc1ccc(OC(F)(F)Cl)cc1)c1cnc(N2CC[C@@H](O)C2)c(-c2cc[nH]n2)c1 [Asciminib] (tested concentration range 0.1-1000 nM) | 0 |
| CC(C)c1c(C(=O)Nc2ccccc2)c(-c2ccccc2)c(-c2ccc(F)cc2)n1CC[C@@H](O)C[C@@H](O)CC(=O)O [Atorvastatin] (tested concentration range 1-10000 nM) | 5.9 |
| CC(=O)OC[C@H]1O[C@@H]([S-])[C@H](OC(C)=O)[C@@H](OC(C)=O)[C@@H]1OC(C)=O.CCP(CC)CC.[Au+] [Auranofin] (tested concentration range 0.2-2500 nM) | 7.2 |
| Cc1nc2cccc(N)c2c(=O)n1C1CCC(=O)NC1=O (stereo unspecified) [Avadomide] (tested concentration range 1-10000 nM) | 0 |
| CNC(=O)c1ccccc1Sc1ccc2c(/C=C/c3ccccn3)n[nH]c2c1 [Axitinib] (tested concentration range 1-10000 nM) | 5.5 |
| Nc1ncn([C@@H]2O[C@H](CO)[C@@H](O)[C@H]2O)c(=O)n1 [Azacitidine] (tested concentration range 1-10000 nM) | 3.2 |
| Cc1cc(-c2nc(-c3ccc(OC(F)(F)F)cc3)no2)nn1Cc1ccnc(N2CCN(C3CC3)CC2)c1 [BAY 87-2243] (tested concentration range 0.1-1000 nM) | 0 |

System: LNCAP
Experiment: as above
In short: as §1

| SMILES | drug sensitivity score |
| --- | --- |
| CC#CC(=O)N1CCC[C@H]1c1nc(-c2ccc(C(=O)Nc3ccccn3)cc2)c2c(N)nccn12 [Acalabrutinib] (tested concentration range 0.1-1000 nM) | 0 |
| COc1cc(C)c(/C=C/C(C)=C/C=C/C(C)=C/C(=O)O)c(C)c1C [Acitretin] (tested concentration range 1-10000 nM) | 0 |
| C=CCn1c(=O)c2cnc(Nc3ccc(N4CCN(C)CC4)cc3)nc2n1-c1cccc(C(C)(C)O)n1 [Adavosertib] (tested concentration range 1-10000 nM) | 17 |
| CN(C)C/C=C/C(=O)Nc1cc2c(Nc3ccc(F)c(Cl)c3)ncnc2cc1O[C@H]1CCOC1 [Afatinib] (tested concentration range 0.1-1000 nM) | 2.7 |
| Cn1ncc(Cl)c1-c1cc(C(=O)N[C@H](CN)Cc2cccc(F)c2)sc1Cl [Afuresertib] (tested concentration range 0.1-1000 nM) | 17 |
| CCc1cc2c(cc1N1CCC(N3CCOCC3)CC1)C(C)(C)c1[nH]c3cc(C#N)ccc3c1C2=O [Alectinib] (tested concentration range 0.1-1000 nM) | 0.5 |
